Tests used:
recombinant SHP-1 = molecular target: T1, recombinant SHP-1 (Homo sapiens, UniProt P29350); assay: rapid in vitro SHP-1 PTPase assay (DIFMUP substrate); assay type: biochemical; details: 1 μg/well; FIG. 12A
T1 construct: Recombinant protein of SHP-1 PTPase catalytic domain was described
T1 sequence (P29350 244-515 limits assumed): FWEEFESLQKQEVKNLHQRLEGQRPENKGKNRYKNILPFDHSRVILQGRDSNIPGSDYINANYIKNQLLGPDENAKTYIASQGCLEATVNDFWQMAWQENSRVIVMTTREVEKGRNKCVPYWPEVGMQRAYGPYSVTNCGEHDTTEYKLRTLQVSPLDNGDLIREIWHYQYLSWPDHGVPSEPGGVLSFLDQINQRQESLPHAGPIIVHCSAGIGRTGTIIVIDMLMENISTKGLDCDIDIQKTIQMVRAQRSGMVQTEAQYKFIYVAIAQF
Experimental: Recombinant protein of SHP-1 PTPase catalytic domain was described and stored in Tris buffer (25 mM Tris, pH7.5, 1 mM EDTA, 2 μM 2-ME, 25% glycerol) at −80° C. Fluorescence substrate DIFMUP (6,8-difluoro-4 methylumbelliferyl phosphate) was purchased (Molecular Probes). SSG was reported previously (21-23) and stored at 4° C. in darkness prior to use. Human and mouse IFNγ ELISPOT Kit (R & D System), CD4^+ Cell Intracellular IFNγ Detection Kit (BD Bioscience) and CD8^+ Cell Intracellular IFNγ Detection Kit (BD Bioscience) were purchased from commercial sources. Human Jurkat T cell line (26) and murine B16 melanoma cell line (ATCC) were maintained in […] culture medium supplemented with 10% fetal calf serum (FCS). Antibodies against pLck-pY394 (Cell Signaling), pLck-pY505 (Cell Signaling), pZap70 (pY319, BD Biosciences), pSlp76 (pY128, BD Biosciences) and pLat (pY226, BD Biosciences) were purchased from commercial sources.
(§1) A rapid SHP-1 PTPase assay was developed for screening the compounds in a commercial library of 34,000 drug-like small chemicals (Chembridge, Mass.). Briefly, compounds of the library (1 μg/well in 0.21 DMSO) were placed in 96-well plates (Falcon, 353072) and mixed with recombinant SHP-1 protein (0.1 μg/well) in 90 μl of HEPES buffer (50 mM HEPS, pH 7.5, 150 mM NaCl, 1 mM EDTA, 0.2 mM DTT and 0.1 mg/ml BSA). The plates were incubated at room temperature for 10 minutes prior to the addition of fluorescence substrate DIFMUP (40 μM stock in HEPES buffer, 10 μl/well) to initiate PTPase reaction. Upon completion of PTPase reaction at room temperature for 1 hr in darkness, fluorescence signal of individual wells were recorded using a Vector^2 Multilabel Counter (Vector, CA). They were compared to that of control SHP-1 PTPase reaction (˜10,000 units of fluorescence signal) in the absence of any compound (100%) for calculating relative SHP-1 inhibition induced by the compounds after subtracting the background signal (˜500 units of fluorescence signal) of the substrate.
as §1, with “To evaluate their” for “A rapid”, “inhibitory activity,” for “PTPase assay was developed for screening”, “analogs” for “compounds in a commercial library of 34,000 drug-like small chemicals (Chembridge, Mass.). Briefly, compounds of the library”, “0.2 μl” for “0.21”, “aliquot individually to” for “placed in”, “(500” for “(˜500”

[1] = test system: spleen pLck and IFNγ+ cells; assay: in vivo induction of spleen pLck and IFNγ+ cells in mice; set-up: species or system mouse
Experimental: (§2) Spleens were harvested one hour post-treatment on day 4 and processed into splenocytes, which were used for assessing pLck levels by SDS-PAGE/Western blotting and for quantification of IFNγ+ cells by ELISPOT assays. Mice were also treated with L5 (˜10 mg/kg body weight, daily, s.c., n=2) to evaluate the toxicity of the compounds in vivo.

pERK1/2 in Jurkat cells = pERK1/2 in Jurkat cells (Western blotting); assay type: cell-based, human
Experimental: (§3) Jurkat cells in culture medium (3×10^6 cells/ml, 1 ml/tube) were treated with agents for designated times at room temperature. After brief centrifuging in a microfuge (4,000 rpm, 2 min), the cell pellet was lysed on ice for 30 min in 100 μl of cold lysis buffer (1% NP40, 50 mM Tris, pH 7.4, 150 mM NaCl, 20 mM NaF, 0.2 mM Na3VO4 and 1 mM Na3MO4) containing a cocktail of proteinase inhibitors (Sigma, 1 tablet/10 ml). The lysates were cleared by centrifuging (14,000 rpm, 10 min) in a microfuge at 4° C. to remove insoluble parts, mixed with equal volume of 2×SDS-PAGE sample buffer, boiled for 5 min and analyzed (˜3×10^5 cells/well) by SDS-PAGE/Western blotting. Relative intensities of phosphotyrosine bands were quantified through densitometry analysis.
as §3, with “blotting as described previously (17, 18).” for “blotting.”

toxicity of L5 in mice = assay type: in vivo, mouse; details: 10 mg/kg, daily, s.c., two weeks
Experimental: FIG. 3 illustrates differential toxicity of L5 and L6. Jurkat cells were cultured in the absence or presence of lead compound #5 (L5) (A) or #6 (L6) (B) for 6 days prior to quantification of cell growth by MTT assays. Data represent mean ±SD of triplicate samples. Balb/c mice were treated with L5 (˜10 mg/kg body weight, s.c., daily, M-F/wk) for two weeks to assess its toxicity in vivo (C).
as §2

Q: Which results are given for `O=C1C=CC(=O)C(c2cc(Cl)ccc2Cl)=C1` [L5]?
A: inhibition of phosphatase activity of recombinant SHP-1 (recombinant SHP-1): completely or almost completely inhibited; effect on pLck ([1]; 1 mg/kg of body weight): only a minor effect; increase of splenocyte pLck ([1]; ~3 mg/kg of body weight, s.c., daily, 4 days): ~3.3 fold; increase of spleen IFNγ+ cells ([1]; ~3 mg/kg, s.c., daily, 4 days): approximately 3 fold; levels of pERK1/2 (pERK1/2 in Jurkat cells; 1 μg/ml): reduced the levels of pERK1/2; effect on SHP-2 or CD45 phosphatases (pERK1/2 in Jurkat cells; 10-100 ng/ml in Jurkat cells): did not affect; levels of pERK1/2 (pERK1/2 in Jurkat cells; lower doses (0.1 to 0.001 μg/ml)): not at lower doses; viability of mice (toxicity of L5 in mice): all alive

From patent US20080051464A1, “Protein phosphatase inhibitors” (The Cleveland Clinic Foundation, priority 2006, published 2008)
